This note sets out measurements from publication PMC12680861, “Comparative analysis of LJ-4378 and tirzepatide in mouse models of obesity and weight regain” (Archives of Pharmacal Research, 2025).

What is called amount remaining is what is left of the initial amount, in per cent.

Data set [1] can be described thus: Plasma protein binding, Rapid Equilibrium Dialysis (RED). In kind it is in vitro ADME, rat. The note with it: rat, plasma (100%, sodium citrate), pH 7.4, 37 °C, read-out: Plasma free fraction (% Free), Rat. The procedure:
(§1) The plasma protein binding of LJ-4378 was evaluated using the Rapid Equilibrium Dialysis (RED) method with 100% plasma from human (Biochemed, BC22089NCP), rat (Innovative, IRT-N), and mouse (Biochemed, 029-APSC-MP), all treated with sodium citrate as an anticoagulant. The RED device (ThermoFisher Scientific, #89809) and reusable base plate (ThermoFisher Scientific, #89811) were used with an 8 K MWCO membrane. Test compounds were added to plasma at a final concentration of 10 μM and dialyzed against phosphate-buffered saline (PBS, pH 7.4; Hyclone, #SH30256.01) at 37 °C for 4 h. After incubation, equal volumes of plasma and PBS samples were mixed with blank PBS and blank plasma, respectively, followed by the addition of acetonitrile containing chlorpropamide (TRC, C424800) as the internal standard. […] All measurements were performed in duplicate with a deviation of less than 15% between replicates. The free fraction (% Free) was calculated as (concentration in buffer chamber/concentration in plasma chamber) × 100, and the bound fraction (% Bound) was obtained by subtracting % Free from 100. In cases where measurements were unstable, deviations greater than 15% were allowed.
On the technique in general: In equilibrium dialysis free small molecules cross a membrane that holds back macromolecules.

Assay in data set [2]: as above
In kind it is in vitro ADME, mouse. The settings on record: mouse, plasma (100%, sodium citrate), pH 7.4, 37 °C, read-out: Plasma free fraction (% Free), Mouse. The procedure:
as §1

Assay in data set [3]: as above
In kind it is in vitro ADME, human. The note with it: human, plasma (100%, sodium citrate), pH 7.4, 37 °C, read-out: Plasma free fraction (% Free), Human. As for the experimental part:
as §1

A short description of data set [4]: Plasma stability assay. In kind it is in vitro ADME, mouse. The settings on record: mouse, plasma (100%, sodium citrate), 37 °C; for remaining at 0.5 h, 10 μM: 30 min, read-out: % Remaining compound, Mouse plasma 30 min; for remaining at 2 h, 10 μM: 120 min, read-out: % Remaining compound, Mouse plasma 120 min. As for the experimental part: (§2) The plasma stability of LJ-4378 was evaluated using 100% plasma obtained from human (Biochemed, BC22089NCP, sodium citrate), rat (Innovative, IRT-N, sodium citrate), and mouse (Biochemed, 029-APSC-MP, sodium citrate). 10 Μm of LJ-4378 was added to the plasma, and samples were incubated at 37 °C for 0, 30, and 120 min. At each time point, an aliquot of the plasma was removed and mixed with acetonitrile containing the internal standard, chlorpropamide (TRC, C424800). […] The supernatant was injected into the LC–MS/MS system for quantification of the remaining compound. Analysis was performed using a Nexera XR system (Shimadzu, Japan) with a TSQ Vantage mass spectrometer (Thermo, USA). […] Data acquisition was conducted in MRM mode using Xcalibur software (version 4.4). All experiments were performed in duplicate with a deviation within 15%, and the percentage of compound remaining (% Remaining) at each time point was calculated relative to the non-incubated control sample. For quality control, procaine and enalapril (each at 10 μM) were used as reference compounds and were confirmed to fall within acceptable ranges.

Data set [5] is described as follows: Plasma stability assay. The settings on record: rat, plasma (100%, sodium citrate), 37 °C; for remaining at 0.5 h, 10 μM: 30 min, read-out: % Remaining compound, Rat plasma 30 min; for remaining at 2 h, 10 μM: 120 min, read-out: % Remaining compound, Rat plasma 120 min. The class given is in vitro ADME, rat. The procedure:
as §2

Data set [6] is described as follows: Plasma stability assay. The class given is in vitro ADME, human. The note with it: human, plasma (100%, sodium citrate), 37 °C. The procedure: as §2
Data set [7] deals with CYP2C9 (Homo sapiens, UniProt P11712). Nature of the data set: CYP enzyme inhibition in pooled human liver microsomes (diclofenac substrate). The note with it: human, pooled human liver microsomes, pH 7.4. As for the experimental part:
(§3) Cytochrome 450 (CYP) enzyme inhibition was evaluated using pooled human liver microsomes (Corning, #452117). […] Substrates and corresponding metabolites for each CYP isoform were as follows: phenacetin and acetaminophen for CYP1A2 (Sigma Aldrich, #77440 and A7085, respectively), diclofenac and 4'-hydroxydiclofenac for CYP2C9 (Sigma Aldrich, D6899; TRC, H825225), S-mephenytoin and 4'-hydroxymephenytoin for CYP2C19 (Sigma Aldrich, UC175; Santacruz, sc210197), dextromethorphan and dextrorphan for CYP2D6 (Sigma Aldrich, #81091 and UC205), and midazolam and 1'-hydroxymidazolam for CYP3A4 (KFDA; Sigma Aldrich, UC430).
(§4) Samples were preincubated at 37 °C for 5 min, and the reaction was initiated by the addition of the NADPH regeneration system, followed by incubation at 37 °C for 15 min. The reaction was terminated by adding acetonitrile containing the internal standard, and centrifuged at 15,000 rpm for 5 min at 4 °C. The supernatant was analyzed by LC–MS/MS using a Nexera XR system (Shimadzu, Japan) coupled with a TSQ Vantage mass spectrometer (Thermo, USA). […] Metabolites were quantified in multiple reaction monitoring (MRM) mode with Xcalibur software (version 4.4).
(§5) All experiments were performed in duplicate with variability ≤ 15%. The percent activity of each CYP enzyme was calculated based on metabolite formation relative to the no-inhibitor control.

For data set [8], the target named is T1, CYP1A2 (Homo sapiens, UniProt P05177).
T1 sequence (P05177 1-516): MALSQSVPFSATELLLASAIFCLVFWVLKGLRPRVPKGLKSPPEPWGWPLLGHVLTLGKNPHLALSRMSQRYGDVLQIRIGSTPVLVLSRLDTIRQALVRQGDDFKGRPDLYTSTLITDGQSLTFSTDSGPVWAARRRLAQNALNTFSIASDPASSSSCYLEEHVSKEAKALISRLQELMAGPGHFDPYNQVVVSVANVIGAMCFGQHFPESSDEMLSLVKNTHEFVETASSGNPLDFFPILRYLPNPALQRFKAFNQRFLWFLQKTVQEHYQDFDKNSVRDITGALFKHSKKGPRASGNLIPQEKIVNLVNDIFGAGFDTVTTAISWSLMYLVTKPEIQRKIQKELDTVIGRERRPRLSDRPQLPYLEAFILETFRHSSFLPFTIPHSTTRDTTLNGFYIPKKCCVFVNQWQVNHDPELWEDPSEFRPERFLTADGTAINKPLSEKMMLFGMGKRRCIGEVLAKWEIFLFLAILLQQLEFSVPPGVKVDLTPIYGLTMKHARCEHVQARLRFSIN
Nature of the data set: CYP enzyme inhibition in pooled human liver microsomes (phenacetin substrate). The note with it: human, pooled human liver microsomes, pH 7.4. The procedure:
as §3, §4, §5

The target of data set [9] is CYP2C19 (Homo sapiens, UniProt P33261). Nature of the data set: CYP enzyme inhibition in pooled human liver microsomes (S-mephenytoin substrate). The settings on record: human, pooled human liver microsomes, pH 7.4. The procedure: as §3, §4, §5
(Liver microsomes are a subcellular fraction often used to study metabolism.)

Read-outs that look alike come from different tables or passages of the source.

CYP2C19, sequence (P33261 whole entry): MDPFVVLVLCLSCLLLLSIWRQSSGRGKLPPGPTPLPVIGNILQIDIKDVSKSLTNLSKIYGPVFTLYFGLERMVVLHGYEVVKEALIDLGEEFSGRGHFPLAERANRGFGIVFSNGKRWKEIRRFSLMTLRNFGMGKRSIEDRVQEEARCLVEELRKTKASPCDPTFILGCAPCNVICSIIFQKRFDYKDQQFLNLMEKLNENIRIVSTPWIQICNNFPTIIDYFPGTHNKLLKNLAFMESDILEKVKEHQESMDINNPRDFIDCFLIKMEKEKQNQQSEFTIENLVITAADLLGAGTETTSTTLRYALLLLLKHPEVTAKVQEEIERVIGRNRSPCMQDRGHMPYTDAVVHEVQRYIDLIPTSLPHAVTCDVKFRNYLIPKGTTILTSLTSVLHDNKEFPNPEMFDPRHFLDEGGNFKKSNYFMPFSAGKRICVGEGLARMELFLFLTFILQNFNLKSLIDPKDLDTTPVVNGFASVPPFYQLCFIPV
CYP2C9, sequence (P11712 whole entry, canonical isoform): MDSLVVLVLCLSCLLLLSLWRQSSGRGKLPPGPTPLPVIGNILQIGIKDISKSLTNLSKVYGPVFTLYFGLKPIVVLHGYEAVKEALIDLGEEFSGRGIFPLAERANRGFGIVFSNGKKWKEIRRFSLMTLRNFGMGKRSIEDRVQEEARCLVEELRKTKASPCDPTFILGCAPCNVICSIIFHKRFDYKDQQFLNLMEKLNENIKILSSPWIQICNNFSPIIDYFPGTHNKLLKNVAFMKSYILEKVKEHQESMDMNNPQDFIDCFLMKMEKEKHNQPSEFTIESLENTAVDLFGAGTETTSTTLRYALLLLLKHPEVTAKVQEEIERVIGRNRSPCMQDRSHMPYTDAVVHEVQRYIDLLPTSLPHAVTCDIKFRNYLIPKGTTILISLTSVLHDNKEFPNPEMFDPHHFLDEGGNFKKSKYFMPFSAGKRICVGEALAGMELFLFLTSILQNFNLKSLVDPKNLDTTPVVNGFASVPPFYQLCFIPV

Regarding `C[C@@H]1C[C@H]2[C@@H]3CCC4=CC(=O)C=C[C@]4(C)[C@@]3(F)[C@@H](O)C[C@]2(C)[C@@]1(O)C(=O)CO` [Dexamethasone], the fraction unbound at 4 h, 10 μM in data set [1] was 0.222; in data set [2], 0.297; in data set [3], 0.359.
On to `CCOC(=O)[C@H](CCc1ccccc1)N[C@@H](C)C(=O)N1CCC[C@H]1C(=O)O` [Enalapril, enalapril], for which the fraction remaining at 0.5 h, 10 μM in data set [4] is 66%; in data set [5], 34.5%; in [6] (30 min, read-out: % Remaining compound, Human plasma 30 min), over 100%. The share remaining at 2 h, 10 μM in data set [4] came out at 26.3%; in data set [5], 1.4%; in data set [6] (120 min, read-out: % Remaining compound, Human plasma 120 min) it was 95.9%.
For the molecule `CC(=O)N1CCN(c2ccc(OCC3COC(Cn4ccnc4)(c4ccc(Cl)cc4Cl)O3)cc2)CC1` (stereo not drawn) [Ketoconazole, ketoconazole, reference compound], the activity at 15 min, 10 µM is 98% in data set [7], 98.3% in data set [8] and over 100% in data set [9].
With `CCN(CC)CCOC(=O)c1ccc(N)cc1` [Procaine, procaine], in data set [4], the fraction remaining at 0.5 h, 10 μM amounted to 7% and the fraction remaining at 2 h, 10 μM is under 1%. Moreover, in [5], the amount remaining at 0.5 h, 10 μM was 85.2% and the share remaining at 2 h, 10 μM came to 45.2%. In addition, the amount remaining at 5 min, 10 μM in data set [6] (5 min (printed in the 30 min column), read-out: % Remaining compound, Human plasma 5 min) was determined as 1.2%. In [6] (10 min (printed in the 120 min column), read-out: % Remaining compound, Human plasma 10 min), the amount remaining at 10 min, 10 μM is under 1%.
`CC(=O)CC(c1ccccc1)c1c(O)c2ccccc2oc1=O` (stereo not drawn) [Warfarin]: the figures for the fraction unbound at 4 h, 10 μM in [1], in data set [2] and in data set [3] were 0.01, 0.062 and 0.006, respectively.
